In patent US10000488B2, “Heterocyclic compound” (TAKEDA PHARMACEUTICAL COMPANY LIMITED, priority 2014, dated 2018):

Columns and labels:
[1] = biological target: T1, RORγt (Homo sapiens, UniProt P51449); assay: Jurkat reporter test (human IL-17 ROR response element luciferase reporter, RORγt vector); assay type: cell-based; details: test compound 3 μM; Jurkat cells; read-out: luminescence level inhibitory rate (%) at test compound 3 μM
T1 sequence (P51449 1-497 isoform P51449-2): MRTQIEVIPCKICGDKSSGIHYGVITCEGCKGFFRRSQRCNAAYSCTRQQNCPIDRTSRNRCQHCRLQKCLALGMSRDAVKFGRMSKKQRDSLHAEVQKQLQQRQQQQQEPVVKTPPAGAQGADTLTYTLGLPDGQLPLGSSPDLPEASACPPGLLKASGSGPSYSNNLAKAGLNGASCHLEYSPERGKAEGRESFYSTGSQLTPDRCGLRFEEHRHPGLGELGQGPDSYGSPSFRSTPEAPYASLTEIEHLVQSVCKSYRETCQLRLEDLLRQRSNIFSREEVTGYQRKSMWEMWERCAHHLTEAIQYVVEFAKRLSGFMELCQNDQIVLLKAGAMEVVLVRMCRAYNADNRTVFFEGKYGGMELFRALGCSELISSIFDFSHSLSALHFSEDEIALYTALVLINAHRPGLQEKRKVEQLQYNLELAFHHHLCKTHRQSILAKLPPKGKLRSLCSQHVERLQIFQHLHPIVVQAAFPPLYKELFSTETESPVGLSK
In short: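 Jurkat cells were electroporated (1350 V, 10 ms, 3 pulses) with the reporter constructs and plated in RPMI with 10% lipid-reduced FCS, 10 mM HEPES pH 7.5 and 5 μM lovastatin. After overnight culture with compound, luciferase activity was measured by luminescence following a 10 min room-temperature incubation with Bright-Glo.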

[2] = biological target: T1, RORγt; assay: RORγt binding test using fluorescent-labeled synthetic ligand (TR-FRET); details: test compound 1 μM; read-out: binding inhibitory rate (%) of fluorescent-labeled synthetic ligand to RORγt at test compound 1 μM
In short: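 Compound displacement of a fluorescent-labeled synthetic ligand from His-tagged RORγt was read by TR-FRET with a terbium anti-His antibody. Buffer was 20 mM Tris-HCl pH 7.5, 100 mM NaCl, 1 mM DTT and 0.1% BSA, with stocks of 240 nM protein, 12 μM ligand and 8 nM antibody (pre-mix, not final). Incubations were 20 min plus 20 min at room temperature, with excitation at 320 nm, emission at 520 nm and a 100 μs delay.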

[3] = biological target: T1, RORγt; assay: Cofactor recruitment test (Alpha Screen, biotinylated SRC-1 peptide); assay type: biochemical; details: read-out: signal value inhibitory rate (%) at test compound 1 μM
Experimental: Cofactor Recruitment Test
Cofactor recruitment test was performed by Alpha Screen (Histidine Detection Kit, PerkinElmer) method. First, a test compound was diluted with an assay buffer (50 mM Tris-HCl (pH 7.5), 50 mM KCl, 1 mM DTT, 0.1% BSA) and added to a 384 well plate by 5 μL. […] The mixture was stood in a dark place for 1 hr, and the signal value was measured by Envision (PerkinElmer).

Row | Structure (SMILES) | inhibition at 3 µM [1] | inhibition at 1 µM [2] | inhibition at 1 µM [3]
1 | CC(C)n1c(=O)n(CC2CC2)c(=O)c2cc(NC(=O)N3CCC[C@@H](NC(=O)c4cc(Cl)ccc4F)C3)c(F)cc21 [Example 282, (3R)-3-((5-chloro-2-fluorobenzoyl)amino)-N-(3-(cyclopropylmethyl)-7-fluoro-1-isopropyl-2,4-dioxo-1,2,3,4-tetrahydroquinazolin-6-yl)piperidine-1-carboxamide] | 102% | 102% | 108%
2 | CC(C)n1c(=O)n(CC2CC2)c(=O)c2cc(NC(=O)N3CCOC(C(=O)Nc4cc(F)c(C#N)cc4F)C3)ccc21 (stereo not drawn) [Example 135, N^2-(4-cyano-2,5-difluorophenyl)-N^4-(3-(cyclopropylmethyl)-1-isopropyl-2,4-dioxo-1,2,3,4-tetrahydroquinazolin-6-yl)morpholine-2,4-dicarboxamide] | 99% | 102% | 113%
3 | CC(C)n1c(=O)n(CC2CC2)c(=O)c2cc(NC(=O)N3CCO[C@@H](C(=O)Nc4cc(Cl)c(C#N)cc4F)C3)c(F)cc21 [Example 347, (2R)—N^2-(5-chloro-4-cyano-2-fluorophenyl)-N^4-(3-(cyclopropylmethyl)-7-fluoro-1-isopropyl-2,4-dioxo-1,2,3,4-tetrahydroquinazolin-6-yl)morpholine-2,4-dicarboxamide] | 107% | 102% | 107%
4 | CC(C)n1c(=O)n(C[C@@H]2CCCO2)c(=O)c2cc(NC(=O)N3CCO[C@@H](C(=O)Nc4ccc(C#N)c(Cl)c4)C3)c(F)cc21 [Example 357, (2R)—N^2-(3-chloro-4-cyanophenyl)-N^4-(7-fluoro-1-isopropyl-2,4-dioxo-3-((2S)-tetrahydrofuran-2-ylmethyl)-1,2,3,4-tetrahydroquinazolin-6-yl)morpholine-2,4-dicarboxamide] | 106% | 101% | 107%
5 | CC(C)n1c(=O)n(CC2CC2)c(=O)c2cc(NC(=O)N3CCCC(NC(=O)c4ccc(C#N)nc4)C3)ccc21 (stereo not drawn) [Example 157, 6-cyano-N-(1-((3-(cyclopropylmethyl)-1-isopropyl-2,4-dioxo-1,2,3,4-tetrahydroquinazolin-6-yl)carbamoyl)piperidin-3-yl) nicotinamide] | 102% | 102% | 109%
6 | CC(C)n1c(=O)n(CC2CC2)c(=O)c2cc(NC(=O)N3CCO[C@@H](C(=O)Nc4cc(F)c(C#N)cc4F)C3)c(F)cc21 [Example 171, (2R)-N^2-(4-cyano-2,5-difluorophenyl)-N^4-(3-(cyclopropylmethyl)-7-fluoro-1-isopropyl-2,4-dioxo-1,2,3,4-tetrahydroquinazolin-6-yl)morpholine-2,4-dicarboxamide] | 103% | 101% | 107%
7 | CC(C)n1c(=O)n(CC2CC2)c(=O)c2cc(NC(=O)N3CCC[C@@H](NC(=O)c4cc(F)ccc4F)C3)c(F)cc21 [Example 287, (3R)-N-(3-(cyclopropylmethyl)-7-fluoro-1-isopropyl-2,4-dioxo-1,2,3,4-tetrahydroquinazolin-6-yl)-3-((2,5-difluorobenzoyl)amino)piperidine-1-carboxamide] | 100% | 102% | 111%
8 | CC(C)n1c(=O)n(CC2CC2)c(=O)c2cc(NC(=O)N3CCO[C@@H](C(=O)Nc4ccc(C#N)c(F)c4)C3)c(F)cc21 [Example 172, (2R)-N^2-(4-cyano-3-fluorophenyl)-N^4-(3-(cyclopropylmethyl)-7-fluoro-1-isopropyl-2,4-dioxo-1,2,3,4-tetrahydroquinazolin-6-yl)morpholine-2,4-dicarboxamide] | 105% | 102% | 111%

Other lines, results leading:

Row | inhibition at 3 µM [1] | inhibition at 1 µM [2] | inhibition at 1 µM [3] | Structure (SMILES)
9 | 102% | 102% | 108% | Cc1nc2cc(C(=O)N[C@@H]3CCCN(C(=O)Nc4cc5c(=O)n(CC6CC6)c(=O)n(C(C)C)c5cc4F)C3)ccc2o1 [Example 296, N-((3R)-1-((3-(cyclopropylmethyl)-7-fluoro-1-isopropyl-2,4-dioxo-1,2,3,4-tetrahydroquinazolin-6-yl)carbamoyl)piperidin-3-yl)-2-methyl-1,3-benzoxazole-5-carboxamide]
10 | 100% | 102% | 112% | COC(=O)c1ccc(C(=O)NC2CCCN(C(=O)Nc3ccc4c(c3)c(=O)n(CC3CC3)c(=O)n4C(C)C)C2)cc1 (stereo not drawn) [Example 132, methyl 4-((1-((3-(cyclopropylmethyl)-1-isopropyl-2,4-dioxo-1,2,3,4-tetrahydroquinazolin-6-yl)carbamoyl)piperidin-3-yl)carbamoyl)benzoate]
11 | 104% | 102% | 104% | CC(C)n1c(=O)n(CC2CC2)c(=O)c2cc(NC(=O)N3CCC[C@@H](NC(=O)c4cccc(Cl)c4)C3)ccc21 [Example 248, (3R)-3-((3-chlorobenzoyl)amino)-N-(3-(cyclopropylmethyl)-1-isopropyl-2,4-dioxo-1,2,3,4-tetrahydroquinazolin-6-yl)piperidine-1-carboxamide]
12 | 100% | 101% | 111% | CC(C)n1c(=O)n(CC2CC2)c(=O)c2cc(NC(=O)N3CCOC(C(=O)Nc4ccc(C#N)c(F)c4)C3)ccc21 (stereo not drawn) [Example 176, N^2-(4-cyano-3-fluorophenyl)-N^4-(3-(cyclopropylmethyl)-1-isopropyl-2,4-dioxo-1,2,3,4-tetrahydroquinazolin-6-yl)morpholine-2,4-dicarboxamide]
13 | 110% | 102% | 105% | CC(C)n1c(=O)n(CC2CC2(F)F)c(=O)c2cc(NC(=O)N3CCCC(n4cnc5cc(C#N)ccc5c4=O)C3)c(F)cc21 (single isomer, unassigned) [Example 367, (3R)-3-(7-cyano-4-oxoquinazoline-3(4H)-yl)-N-(3-(((1R or 1S)-2,2-difluorocyclopropyl)methyl)-7-fluoro-1-isopropyl-2,4-dioxo-1,2,3,4-tetrahydroquinazolin-6-yl)piperidine-1-carboxamide (one stereoisomer, quinazolinedione: derived from tR1)]
14 | 103% | 102% | 106% | CC(C)n1c(=O)n(CC2CC2)c(=O)c2cc(NC(=O)N3CCC[C@@H](n4cnc5cc(C#N)ccc5c4=O)C3)c(F)cc21 [Example 324, (3R)-3-(7-cyano-4-oxoquinazoline-3(4H)-yl)-N-(3-(cyclopropylmethyl)-7-fluoro-1-isopropyl-2,4-dioxo-1,2,3,4-tetrahydroquinazolin-6-yl)piperidine-1-carboxamide]
15 | 101% | 102% | 112% | CC(C)n1c(=O)n(CC2CC2)c(=O)c2cc(NC(=O)N3CCC[C@@H](NC(=O)c4ccc(C#N)s4)C3)c(F)cc21 [Example 292, (3R)-3-(((5-cyano-2-thienyl)carbonyl)amino)-N-(3-(cyclopropylmethyl)-7-fluoro-1-isopropyl-2,4-dioxo-1,2,3,4-tetrahydroquinazolin-6-yl)piperidine-1-carboxamide]
16 | 101% | 102% | 89% | CC(C)n1c(=O)n(CC2CC2)c(=O)c2cc(NC(=O)N3CCC[C@@H](NC(=O)c4ccc(CNC(=O)OC(C)(C)C)cc4)C3)ccc21 [Example 274, tert-Butyl (4-(((3R)-1-((3-(cyclopropylmethyl)-1-isopropyl-2,4-dioxo-1,2,3,4-tetrahydroquinazolin-6-yl)carbamoyl)piperidin-3-yl)carbamoyl)benzyl) carbamate]
17 | 102% | 102% | 107% | COc1ccc2c(c1)C(=O)N([C@@H]1CCCN(C(=O)Nc3cc4c(=O)n(CC5CC5)c(=O)n(C(C)C)c4cc3F)C1)C2 [Example 303, (3R)—N-(3-(cyclopropylmethyl)-7-fluoro-1-isopropyl-2,4-dioxo-1,2,3,4-tetrahydroquinazolin-6-yl)-3-(6-methoxy-1-oxo-1,3-dihydro-2H-isoindol-2-yl)piperidine-1-carboxamide]
